In brackets after ≈: the same amount, converted by molar mass. Each block holds one compound with its values, some of them ahead of it.
Experiments:
Assay type in all cases: physicochemical
[1] = Stability study of crystal forms, XRPD characterization on day 14
Description: An amount of sample to be tested was weighed and placed in a dish under conditions including high temperature (60° C.), high humidity (25° C., 92.5% RH), light radiation (25° C., 4500 Lux) and acceleration conditions (40° C., 75% RH), respectively, and sampled for XRPD characterization on day 14. Form I, Form II, Form III were taken for stability study under conditions including high temperature (60° C.), high humidity (25° C., 92.5% RH), light radiation (25° C., 4500 Lux), and acceleration conditions (40° C., 75% RH), and the results are shown in Table 2: […]

[2] = Crystal form transition observed during experiment / post-treatment; conditions: e.g. drying under vacuum at ambient temperature
From the text: The crystal form VII and the crystal form VIII can be obtained by similar method but by different post-treatment means.

[3] = Solubility of Compound 1 in 19 types of solvents at room temperature; conditions: for solubility: thermodynamic from solid
From the text: Compound 1 was detected at room temperature for its solubility in 19 types of solvents. Specially, Compound 1 obtained in Example 1 was taken as sample for detecting its solubility in methanol, ethanol, water, acetonitrile, dioxane and other solvents.

[4] = XRPD of crystal form after DVS test
From the text: The crystal form IV is obtained by heating the crystal form III to lose some crystalline water.

Stability of the crystal form as concluded from crystal form transitions [2]: unstable crystal form
Structure (SMILES): O=C(O)[C@H]1C2CCC(CC2)[C@@H]1Nc1nc(-c2n[nH]c3ncc(F)cc23)nc(C2CC2)c1F [crystal form VI]

Stability of the crystal form as concluded from crystal form transitions [2]: high stability
Structure (SMILES): O=C(O)[C@H]1C2CCC(CC2)[C@@H]1Nc1nc(-c2n[nH]c3ncc(F)cc23)nc(C2CC2)c1F [crystal form VII]

Solubility as a whole compared with WX-216 ([3]; 19 solvents, room temperature): better than that of WX-216
solubility ([3]; organic solvent or mixture, solvent Acetone, 3000 μL, not dissolved completely at 50° C.): < 3300 µg/mL
solubility ([3]; organic solvent or mixture, solvent Acetonitrile, 3000 μL, not dissolved completely at 50° C.): < 3300 µg/mL
solubility ([3]; organic solvent or mixture, solvent Dichloromethane, 3000 μL, not dissolved completely at 50° C.): < 3300 µg/mL
solubility ([3]; organic solvent or mixture, solvent Dimethylformamide, 200 μL): > 50000 µg/mL
solubility ([3]; organic solvent or mixture, solvent Dimethylsulfoxide, 200 μL): > 50000 µg/mL
solubility ([3]; organic solvent or mixture, solvent Dioxane, 3000 μL, not dissolved completely at 50° C.): < 3300 µg/mL
solubility ([3]; organic solvent or mixture, solvent Ethanol, 3000 μL, not dissolved completely at 50° C.): < 3300 µg/mL
solubility ([3]; organic solvent or mixture, solvent Ethyl acetate, 3000 μL, not dissolved completely at 50° C.): < 3300 µg/mL
solubility ([3]; organic solvent or mixture, solvent Ethyl formate, 3000 μL, not dissolved completely at 50° C.): < 3300 µg/mL
solubility ([3]; organic solvent or mixture, solvent Ethylene glycol dimethyl ether, 3000 μL, not dissolved completely at 50° C.): < 3300 µg/mL
solubility ([3]; organic solvent or mixture, solvent Ethylene glycol monomethyl ether, 200 μL): > 50000 µg/mL
solubility ([3]; organic solvent or mixture, solvent Iso-propanol, 3000 μL, not dissolved completely at 50° C.): < 3300 µg/mL
solubility ([3]; organic solvent or mixture, solvent Methanol, 500 μL): 20000 to 50000 µg/mL (≈ 45.4 to 114 mM)
solubility ([3]; organic solvent or mixture, solvent Methyl isobutyl ketone, 3000 μL, not dissolved completely at 50° C.): < 3300 µg/mL
solubility ([3]; organic solvent or mixture, solvent Methyl tert-butyl ether, 3000 μL, not dissolved completely at 50° C.): < 3300 µg/mL
solubility ([3]; organic solvent or mixture, solvent N-hexane, 3000 μL, not dissolved completely at 50° C.): < 3300 µg/mL
solubility ([3]; organic solvent or mixture, solvent N-propanol, 3000 μL, not dissolved completely at 50° C.): < 3300 µg/mL
solubility ([3]; organic solvent or mixture, solvent Tetrahydrofuran, 3000 μL, not dissolved completely at 50° C.): < 3300 µg/mL
solubility ([3]; solvent Water, 200 μL): > 50000 µg/mL
Structure (SMILES): O=C(O)[C@H]1C2CCC(CC2)[C@@H]1Nc1nc(-c2n[nH]c3ncc(F)cc23)nc(C2CC2)c1F [Compound 1]

Stability of the crystal form as concluded from crystal form transitions [2]: intermediate metastable crystal form
Structure (SMILES): O=C(O)[C@H]1C2CCC(CC2)[C@@H]1Nc1nc(-c2n[nH]c3ncc(F)cc23)nc(C2CC2)c1F [crystal form IX]

Crystal form change after DVS test (XRPD) [4]: does not change
Structure (SMILES): O=C(O)[C@H]1C2CCC(CC2)[C@@H]1Nc1nc(-c2n[nH]c3ncc(F)cc23)nc(C2CC2)c1F [crystal form IV]

The remaining lines, values behind:

Structure (SMILES): O=C(O)[C@H]1C2CCC(CC2)[C@@H]1Nc1nc(-c2n[nH]c3ncc(F)cc23)nc(C2CC2)c1F [Crystal Form II]
Results on Day 14 (XRPD) ([1]; High humidity (25° C., 92.5% RH)): No changes
Results on Day 14 (XRPD) ([1]; High temperature (60° C.)): No changes

Structure (SMILES): O=C(O)[C@H]1C2CCC(CC2)[C@@H]1Nc1nc(-c2n[nH]c3ncc(F)cc23)nc(C2CC2)c1F [crystal form VIII]
Stability of the crystal form as concluded from crystal form transitions [2]: high stability

Structure (SMILES): O=C(O)[C@H]1C2CCC(CC2)[C@@H]1Nc1nc(-c2n[nH]c3ncc(F)cc23)nc(C2CC2)c1F [crystal form V]
Stability of the crystal form as concluded from crystal form transitions [2]: high stability

Structure (SMILES): O=C(O)[C@H]1C2CCC(CC2)[C@@H]1Nc1nc(-c2n[nH]c3ncc(F)cc23)nc(C2CC2)c1F [Crystal Form I]
Results on Day 14 (XRPD) ([1]; Acceleration conditions (40° C., 75% RH)): No changes
Results on Day 14 (XRPD) ([1]; Light radiation (25° C., 4500 Lux)): No changes

Source: patent US12252487B2, “Dominant salt forms of pyrimidine derivatives, and crystal forms thereof” (GUANGDONG RAYNOVENT BIOTECH CO., LTD., priority 2019, dated 2025)
